Data as given in patent EP2468718A1, “Cabanillasin, a new antifungal compound, produced by entomopathogenic xenorhabdus cabanillasii” (Nosopharm, priority 2010, dated 2012).
Read-outs that look alike come from different tables or passages of the source.

Key:
Assay in all cases: Antifungal susceptibility testing, NCCLS M27-A2 broth microdilution (yeasts)
Assay type in all cases: cell-based
[1] = test system: Candida lusitaniae CBS 6936; conditions: Clavispora lusitaniae, CBS6936, read-out: % of growth inhibition
Procedure: (§1) Cabanillasin activity was tested against different fungal human pathogens: ascomycetes yeasts (Candida albicans ATCC 90029, Candida Glabrata ATCC 90030, Candida krusei ATCC 6258 and Candida lusitaniae CBS 6936), basidiomycetes yeasts (Cryptococcus neoformans clinical strain), ascomycetes filamentous fungi (Aspergilus fumigatus clinical strain, Fusarium oxysporum clinical strain) and zygomycetes filamentous fungi (Rhizopus oryzae environemental strain) by the M38-A microdilution method with RPMI 1640 medium (RPMI 1640, MOPS 160 mM, glucose 18 g/L, pH 7) as recommended in the […]. The NCCLS M27-A2 broth microdilution method (NCCLS) was used when yeasts were tested.
(§2) Yeasts and filamentous inoculi were prepared on YPD medium (yeast extract 10 g/L, peptone 10 g/L and glucose 20 g/L) and Malt medium (malt extract 20 g/L) respectively. The densities of inoculi were adjusted by dilution in RPMI 1640 broth to a value ranged from 5.10^2 to 5.10^3 CFU/mL for yeasts isolates and 5.10^3 to 5.10^4 CFU/mL for filamentous fungi. Microdilution trays (96 U-bottom shaped) containing 190 µL fungal inoculum were added with 10 µL Cabanillasin solution (final concentration ranging from 50 to 0.098 mg/L for all fungi). After inoculation of the trays, all microdilution trays were incubated at 35°C in ambient air. The culture absorbance was measured at 600 nm, 24 h and 48 h after the beginning of the experiments for the yeasts and 48 h and 72 h after the beginning of the experiments for filamentous fungi and Cryptococcus neoformans. The activity results correspond to a percentage of growth inhibition ((1-Abs600 nm culture with Cabanillasin)/ Abs600 nm culture without Cabanillasin) x 100.
(§3) The IC50 value is the concentration at which inhibition of growth is equal to 50%. MICs for Candida species were determined at 24 h and 48 h and corresponded to 100% of growth inhibition. Amphotericin B was provided as standard (final concentration ranging from 16 to 0.03 mg/L for all fungi). Experiments were done in duplicate.

[2] = test system: Candida albicans ATCC 90029; conditions: read-out: % of growth inhibition; for inhibition at 0.03 µg/mL: ATCC90029, 0.03 µg/mL; for inhibition at 0.06 µg/mL: ATCC90029, 0.06 µg/mL; for inhibition at 0.12 µg/mL: ATCC90029, 0.12 µg/mL; for inhibition at 0.25 µg/mL: ATCC90029, 0.25 µg/mL; for inhibition at 0.5 µg/mL: ATCC90029, 0.5 µg/mL; for inhibition at 1 µg/mL: ATCC90029, 1 µg/mL; for inhibition at 2 µg/mL: ATCC90029, 2 µg/mL; for inhibition at 4 µg/mL: ATCC90029, 4 µg/mL; for inhibition at 8 µg/mL: ATCC90029, 8 µg/mL; for inhibition at 16 µg/mL: ATCC90029, 16 µg/mL
Procedure: as §1, §2, §3

[3] = test system: Cryptococcus neoformans clinical strain; conditions: read-out: % of growth inhibition
Procedure: as §1, §2, §3

[4] = test system: Candida Glabrata ATCC 90030; conditions: Nakaseomyces glabratus, ATCC90030, read-out: % of growth inhibition
Procedure: as §1, §2, §3

[5] = test system: Candida krusei ATCC 6258; conditions: Pichia kudriavzevii, ATCC6258, read-out: % of growth inhibition
Procedure: as §1, §2, §3

C[C@@H]1[C@H](O)[C@@H](C)/C=C/C=C/C=C/C=C/C=C/C=C/C=C/[C@H](O[C@@H]2O[C@H](C)[C@@H](O)[C@H](N)[C@@H]2O)C[C@@H]2O[C@](O)(C[C@@H](O)C[C@@H](O)[C@H](O)CC[C@@H](O)C[C@@H](O)CC(=O)O[C@H]1C)C[C@H](O)[C@H]2C(=O)O [Amphotericin B, reference compound]
inhibition at 0.03 µg/mL ([1]; 24 h incubation): 19% | inhibition at 0.03 µg/mL ([1]; 48 h incubation): 11.2% | inhibition at 0.06 µg/mL ([1]; 24 h incubation): 63% | inhibition at 0.06 µg/mL ([1]; 48 h incubation): 45.4% | inhibition at 0.12 µg/mL ([1]; 24 h incubation): 100% | inhibition at 0.12 µg/mL ([1]; 48 h incubation): 84.5% | inhibition at 0.25 µg/mL ([1]; 24 h incubation): 100% | inhibition at 0.25 µg/mL ([1]; 48 h incubation): 100% | inhibition at 0.5 µg/mL ([1]; 24 h incubation): 100% | inhibition at 0.5 µg/mL ([1]; 48 h incubation): 100% | inhibition at 1 µg/mL ([1]; 24 h incubation): 100% | inhibition at 1 µg/mL ([1]; 48 h incubation): 100% | inhibition at 2 µg/mL ([1]; 24 h incubation): 100% | inhibition at 2 µg/mL ([1]; 48 h incubation): 100% | inhibition at 4 µg/mL ([1]; 24 h incubation): 100% | inhibition at 4 µg/mL ([1]; 48 h incubation): 100% | inhibition at 8 µg/mL ([1]; 24 h incubation): 100% | inhibition at 8 µg/mL ([1]; 48 h incubation): 100% | inhibition at 16 µg/mL ([1]; 24 h incubation): 100% | inhibition at 16 µg/mL ([1]; 48 h incubation): 100% | inhibition at 0.03 µg/mL ([2]; 24 h incubation): 30.3% | inhibition at 0.03 µg/mL ([2]; 48 h incubation): 17% | inhibition at 0.06 µg/mL ([2]; 24 h incubation): 56.7% | inhibition at 0.06 µg/mL ([2]; 48 h incubation): 32% | inhibition at 0.12 µg/mL ([2]; 24 h incubation): 95.2% | inhibition at 0.12 µg/mL ([2]; 48 h incubation): 70% | inhibition at 0.25 µg/mL ([2]; 24 h incubation): 100% | inhibition at 0.25 µg/mL ([2]; 48 h incubation): 100% | inhibition at 0.5 µg/mL ([2]; 24 h incubation): 100% | inhibition at 0.5 µg/mL ([2]; 48 h incubation): 100% | inhibition at 1 µg/mL ([2]; 24 h incubation): 100% | inhibition at 1 µg/mL ([2]; 48 h incubation): 100% | inhibition at 2 µg/mL ([2]; 24 h incubation): 100% | inhibition at 2 µg/mL ([2]; 48 h incubation): 100% | inhibition at 4 µg/mL ([2]; 24 h incubation): 100% | inhibition at 4 µg/mL ([2]; 48 h incubation): 100% | inhibition at 8 µg/mL ([2]; 24 h incubation): 100% | inhibition at 8 µg/mL ([2]; 48 h incubation): 100% | inhibition at 16 µg/mL ([2]; 24 h incubation): 100% | inhibition at 16 µg/mL ([2]; 48 h incubation): 100% | inhibition at 0.03 µg/mL ([3]; 48 h incubation): 17% | inhibition at 0.03 µg/mL ([3]; 72 h incubation): 0% | inhibition at 0.06 µg/mL ([3]; 48 h incubation): 32% | inhibition at 0.06 µg/mL ([3]; 72 h incubation): 5% | inhibition at 0.12 µg/mL ([3]; 48 h incubation): 70% | inhibition at 0.12 µg/mL ([3]; 72 h incubation): 44% | inhibition at 0.25 µg/mL ([3]; 48 h incubation): 100% | inhibition at 0.25 µg/mL ([3]; 72 h incubation): 81.5% | inhibition at 0.5 µg/mL ([3]; 48 h incubation): 100% | inhibition at 0.5 µg/mL ([3]; 72 h incubation): 100% | inhibition at 1 µg/mL ([3]; 48 h incubation): 100% | inhibition at 1 µg/mL ([3]; 72 h incubation): 100% | inhibition at 2 µg/mL ([3]; 48 h incubation): 100% | inhibition at 2 µg/mL ([3]; 72 h incubation): 100% | inhibition at 4 µg/mL ([3]; 48 h incubation): 100% | inhibition at 4 µg/mL ([3]; 72 h incubation): 100% | inhibition at 8 µg/mL ([3]; 48 h incubation): 100% | inhibition at 8 µg/mL ([3]; 72 h incubation): 100% | inhibition at 16 µg/mL ([3]; 48 h incubation): 100% | inhibition at 16 µg/mL ([3]; 72 h incubation): 100% | inhibition at 0.03 µg/mL ([4]; 24 h incubation): 16.8% | inhibition at 0.03 µg/mL ([4]; 48 h incubation): 25% | inhibition at 0.06 µg/mL ([4]; 24 h incubation): 71.3% | inhibition at 0.06 µg/mL ([4]; 48 h incubation): 23% | inhibition at 0.12 µg/mL ([4]; 24 h incubation): 100% | inhibition at 0.12 µg/mL ([4]; 48 h incubation): 68% | inhibition at 0.25 µg/mL ([4]; 24 h incubation): 100% | inhibition at 0.25 µg/mL ([4]; 48 h incubation): 100% | inhibition at 0.5 µg/mL ([4]; 24 h incubation): 100% | inhibition at 0.5 µg/mL ([4]; 48 h incubation): 100% | inhibition at 1 µg/mL ([4]; 24 h incubation): 100% | inhibition at 1 µg/mL ([4]; 48 h incubation): 100% | inhibition at 2 µg/mL ([4]; 24 h incubation): 100% | inhibition at 2 µg/mL ([4]; 48 h incubation): 100% | inhibition at 4 µg/mL ([4]; 24 h incubation): 100% | inhibition at 4 µg/mL ([4]; 48 h incubation): 100% | inhibition at 8 µg/mL ([4]; 24 h incubation): 100% | inhibition at 8 µg/mL ([4]; 48 h incubation): 100% | inhibition at 16 µg/mL ([4]; 24 h incubation): 100% | inhibition at 16 µg/mL ([4]; 48 h incubation): 100% | inhibition at 0.03 µg/mL ([5]; 24 h incubation): 0% | inhibition at 0.03 µg/mL ([5]; 48 h incubation): 25% | inhibition at 0.06 µg/mL ([5]; 24 h incubation): 48.4% | inhibition at 0.06 µg/mL ([5]; 48 h incubation): 48% | inhibition at 0.12 µg/mL ([5]; 24 h incubation): 100% | inhibition at 0.12 µg/mL ([5]; 48 h incubation): 76.7% | inhibition at 0.25 µg/mL ([5]; 24 h incubation): 100% | inhibition at 0.25 µg/mL ([5]; 48 h incubation): 100% | inhibition at 0.5 µg/mL ([5]; 24 h incubation): 100% | inhibition at 0.5 µg/mL ([5]; 48 h incubation): 100% | inhibition at 1 µg/mL ([5]; 24 h incubation): 100% | inhibition at 1 µg/mL ([5]; 48 h incubation): 100% | inhibition at 2 µg/mL ([5]; 24 h incubation): 100% | inhibition at 2 µg/mL ([5]; 48 h incubation): 100% | inhibition at 4 µg/mL ([5]; 24 h incubation): 100% | inhibition at 4 µg/mL ([5]; 48 h incubation): 100% | inhibition at 8 µg/mL ([5]; 24 h incubation): 100% | inhibition at 8 µg/mL ([5]; 48 h incubation): 100% | inhibition at 16 µg/mL ([5]; 24 h incubation): 100% | inhibition at 16 µg/mL ([5]; 48 h incubation): 100%
